How the values were obtained:
PI3Kα H1047R = target: T1, PI3Kα H1047R (Homo sapiens, UniProt P42336, H1047R); assay: PI3Kα H1047R mutant in vitro cell based assay, MDA-MB-453 cells (AlphaLisa SureFire); details: MDA-MB-453 cell line, 0% FBS, 3 hours treatment
T1 construct: The MDA-MB-453 (ATCC-HTB-131) cell line (PI3Kα H1047R); host or cells: MDA-MB-453
Description: (§1) PI3K-Alpha Kinase (PI3Kα) Activity: Wild-Type PI3Kα, H1047R Mutant PI3Kα, and E545K Mutant PI3Kα In Vitro Cell Based Assays and Determination of IC50 Values for Inhibitors
(§2) The MDA-MB-453 (ATCC-HTB-131) cell line (PI3Kα H1047R) and MCF-7 (ATCC-HTB-22) cell line (PI3Kα E545K), MDA-MB-361 (ATCC-HTB-27) cell line (PI3Kα E545K), and SKBR3 (ATCC-HTB-30) cell line (wild type PI3Kα) were obtained from the American Type Culture Collection (Manassas, VA). MDA-MB-453 cells were maintained in Dulbecco's Modified Eagle Media (DMEM, Gibco 12430) supplemented with 10% Fetal Bovine Serum, heat inactivated (FBS HI, Gibco 10082), 1× non-essential amino acids (NEAA, Gibco 11140), 1 mM sodium pyruvate (Gibco 11360) and 1× Anti-Anti (Gibco 15240). MCF-7 cells were maintained in Minimum Essential Media (MEM) (Gibco 11095) supplemented with 10% Fetal Bovine Serum, heat inactivated (FBS HI, Gibco 10082), 1× non-essential amino acids (NEAA, Gibco 11140), 1 mM sodium pyruvate (Gibco 11360), 1× Anti-Anti (Gibco 15240) and 10 μg/mL human insulin (Sigma I 9278). MDA-MB-361 cells were maintained in Dulbecco's Modified Eagle Media (DMEM, Gibco 12430) supplemented with 20% Fetal Bovine Serum, heat inactivated (FBS HI, Gibco 10082), 1× non-essential amino acids (NEAA, Gibco 11140), 1 mM sodium pyruvate (Gibco 11360) and 1× Anti-Anti (Gibco 15240). SKBR3 cells were maintained in McCoy's 5A (Gibco 16600) supplemented with 10% Fetal Bovine Serum, heat inactivated (FBS HI, Gibco 10082), and 1× Anti-Anti (Gibco 15240). Cultures were maintained in a humidified incubator at 37° C. under 5% CO2/95% air.
(§3) For compound testing in 0% FBS, MDA-MB-453, MCF-7 and SKBR3 cells were seeded at a density of 1.5×10^4, 1.0×10^4, and 1.0×10^4 cells, respectively, per well in white 384-well plates in 20 μl of Minimum Essential Media (MEM) assay media with 1×NEAA, 1 mM sodium pyruvate, and 1 μg/mL human insulin (Sigma 19278) (Assay Medium); while MDA-MB-361 cells were seeded at a density of 1.5×10^4 per well in white 384-well plates in 20 μl Assay Medium without insulin. After plating, cells were allowed to attach overnight. Compounds dissolved in 10 mM stock solutions in DMSO were serially diluted 1:3 in DMSO to generate a 10-point dilution series and plated using an acoustic liquid handler system (Echo 550 Series Liquid Handler, Labcyte). A 5× intermediate compound dilution plate in MEM with 1×NEAA and 1 mM sodium pyruvate (150 μM starting compound concentration in 1.5% DMSO) was then prepared. Five μl of the intermediate serially diluted compounds were added to the cell plate to final concentrations ranging from […] in 0.3% DMSO. 0.3% DMSO alone was used to establish the maximum (MAX) signal and GDC-0032 at a final concentration of 1 μM was used as a reference compound for the minimum (MIN) signal. After 3 hours treatment, the medium was removed, and the cells were lysed in 10 μL of 1× SureFire Lysis buffer with shaking for 10 minutes at room temperature. The Acceptor Mix (Reaction Buffer 1+Reaction Buffer 2+Activation Buffer+SureFire Ultra Acceptor Beads) was prepared by diluting Activation buffer 25-fold in combined Reaction Buffer 1 and Reaction Buffer 2.
(§4) The Acceptor beads were diluted 50-fold in the combined Reaction Buffers. Five μL of Acceptor Mix was added to each well, the plate was sealed and covered with foil and incubated for 1 hour at room temperature. The Donor Mix (dilution buffer+SureFire Ultra Donor Beads) was prepared by diluting Donor Beads 50-fold in dilution buffer. Five μL of the Donor Mix was added to each well and the plate sealed and covered with foil and incubated for 1-2 hours at room temperature in the dark. The plates were read on a Neo2 plate reader instrument from Biotek using standard AlphaLisa settings.
(§5) Compounds were tested in duplicate and the % inhibition at each compound concentration was used to generate two dose response curves. One IC50 was generated using average % inhibition at each compound concentration. […]

PI3Kα E545K [1] = target: T2, PI3Kα E545K (Homo sapiens, UniProt P42336, E545K); assay: PI3Kα E545K mutant in vitro cell based assay, MCF-7 cells; details: MCF-7 cell line, 0% FBS, 3 hours treatment
T2 sequence (P42336 whole entry E545K): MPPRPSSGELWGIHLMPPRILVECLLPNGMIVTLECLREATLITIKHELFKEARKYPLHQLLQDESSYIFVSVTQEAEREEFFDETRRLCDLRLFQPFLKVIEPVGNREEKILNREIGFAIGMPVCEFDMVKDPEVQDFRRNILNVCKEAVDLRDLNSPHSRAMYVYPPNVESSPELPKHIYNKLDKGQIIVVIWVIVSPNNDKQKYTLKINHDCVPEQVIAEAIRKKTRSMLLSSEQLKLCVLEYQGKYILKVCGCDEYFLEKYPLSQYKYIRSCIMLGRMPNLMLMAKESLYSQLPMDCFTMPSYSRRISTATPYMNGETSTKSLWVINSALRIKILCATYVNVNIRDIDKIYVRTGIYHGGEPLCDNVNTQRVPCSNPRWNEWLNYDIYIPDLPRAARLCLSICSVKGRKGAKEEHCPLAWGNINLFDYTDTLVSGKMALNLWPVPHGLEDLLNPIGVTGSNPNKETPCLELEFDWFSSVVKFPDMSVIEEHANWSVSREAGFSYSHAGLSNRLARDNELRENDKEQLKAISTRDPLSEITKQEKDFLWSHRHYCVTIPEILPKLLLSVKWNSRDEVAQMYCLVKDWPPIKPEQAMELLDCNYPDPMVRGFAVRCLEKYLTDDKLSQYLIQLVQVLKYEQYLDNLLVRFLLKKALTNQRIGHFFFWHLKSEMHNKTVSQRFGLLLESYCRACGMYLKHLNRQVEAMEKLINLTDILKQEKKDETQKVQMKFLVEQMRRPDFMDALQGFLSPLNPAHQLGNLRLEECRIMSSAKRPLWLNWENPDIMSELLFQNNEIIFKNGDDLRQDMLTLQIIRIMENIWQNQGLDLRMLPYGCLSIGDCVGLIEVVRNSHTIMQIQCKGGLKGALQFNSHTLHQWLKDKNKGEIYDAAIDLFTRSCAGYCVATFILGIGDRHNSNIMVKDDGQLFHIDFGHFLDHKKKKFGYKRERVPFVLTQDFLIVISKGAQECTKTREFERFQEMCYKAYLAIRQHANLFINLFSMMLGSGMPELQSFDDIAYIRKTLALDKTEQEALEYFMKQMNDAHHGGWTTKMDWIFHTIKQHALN
T2 sequence (P27986 whole entry partner): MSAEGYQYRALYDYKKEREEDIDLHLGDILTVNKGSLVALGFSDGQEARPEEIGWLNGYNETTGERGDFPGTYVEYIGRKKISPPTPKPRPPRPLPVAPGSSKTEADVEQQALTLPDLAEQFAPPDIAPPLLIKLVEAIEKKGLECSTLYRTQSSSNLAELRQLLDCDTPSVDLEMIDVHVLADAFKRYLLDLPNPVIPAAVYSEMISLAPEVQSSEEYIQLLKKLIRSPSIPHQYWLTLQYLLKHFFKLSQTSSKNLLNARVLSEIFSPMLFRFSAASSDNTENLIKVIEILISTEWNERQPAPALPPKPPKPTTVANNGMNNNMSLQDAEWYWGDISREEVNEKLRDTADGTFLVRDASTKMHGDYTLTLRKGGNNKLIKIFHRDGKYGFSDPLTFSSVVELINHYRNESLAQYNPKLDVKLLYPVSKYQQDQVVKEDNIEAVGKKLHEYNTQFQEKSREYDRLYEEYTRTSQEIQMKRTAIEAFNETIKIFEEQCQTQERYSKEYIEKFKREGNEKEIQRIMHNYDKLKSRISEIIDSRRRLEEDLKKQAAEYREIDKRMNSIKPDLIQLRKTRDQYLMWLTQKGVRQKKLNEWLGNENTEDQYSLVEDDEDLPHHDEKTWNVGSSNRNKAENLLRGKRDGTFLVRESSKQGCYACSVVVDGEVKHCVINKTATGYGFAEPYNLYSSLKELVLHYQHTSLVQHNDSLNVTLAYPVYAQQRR
Description: as §1, §2, §3, §4, §5

[2] = Metabolic stability and intrinsic clearance in human liver microsomes (MICS); assay type: in vitro ADME; details: human, microsomes, pH 7.4
Procedure, shortened: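 Parent depletion by LC-MS/MS, run in duplicate, gave in vitro t1/2 from the slope of ln(% remaining) versus time, converted to CLint (μL/min/mg protein). Incubations: 1 μM compound, microsomes at 0.5 mg/mL, pH 7.4 phosphate, 37° C, ±1 mM NADPH, timepoints 0.5, 5, 15, 30, 60 min.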

PI3Kα E545K [3] = target: T2, PI3Kα E545K; assay: PI3Kα E545K mutant in vitro cell based assay, MDA-MB-361 cells; set-up: MDA-MB-361 (ATCC-HTB-27) cell line (PI3Kα E545K); host or cells: MDA-MB-361; details: MDA-MB-361 cell line, 0% FBS, no insulin, 3 hours treatment
Procedure, shortened: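 Compound exposure lasted 3 hours, in duplicate 10-point 1:3 dilutions at 0.3% DMSO final, on overnight-attached MDA-MB-361 cells carrying PI3Kα E545K in insulin-free, 0% FBS MEM. Lysates read by SureFire AlphaLISA. Relative IC50 from 4-parameter logistic fit versus DMSO and 1 μM GDC-0032 controls.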

T1 sequence (P42336 whole entry H1047R): as the sequence (P42336 whole entry E545K) above, with K545E, H1047R counted along it
T1 sequence (P27986 whole entry partner): as the sequence (P27986 whole entry partner) above

Compound | IC50 (PI3Kα H1047R) | IC50 (PI3Kα E545K [1]) | microsomal CLint at 1 μM [2] | IC50 (PI3Kα E545K [3])
Cc1cc([C@@H](C)Oc2ccc(Cl)nc2-c2noc(=O)[nH]2)c2oc(-c3cnc4ccoc4c3)c(C)c(=O)c2c1 [Example 6C, 3-[6-Chloro-3-[(1R)-1-(2-furo[3,2-b]pyridin-6-yl-3,6-yl)ethoxy]-2-pyridyl]-4H-dimethyl-4-oxo-chromen-8-1,2,4-oxadiazol-5-one] | < 100 nM |  |  | 
Cc1cc([C@@H](C)Oc2ccccc2C(N)=O)c2oc(-c3ccc4nn(C)cc4c3)c(C)c(=O)c2c1 [Example 9A, 2-[(1R)-1-[3,6-Dimethyl-2-(2-methylindazol-5-yl)-4-oxo-chromen-8-yl]ethoxy]benzamide] | < 100 nM |  |  | 
CONC(=O)c1nc(Cl)ccc1O[C@H](C)c1cc(C)cc2c(=O)c(C)c(-c3ccc4nn(C)cc4c3)oc12 [Example 26A, 6-Chloro-3-[(1R)-1-[3,6-dimethyl-2-(2-methylindazol-5-yl)-4-oxo-chromen-8-yl]ethoxy]-N-methoxy-pyridine-2-carboxamide] |  | < 500 nM | < 50 µL/min/mg | < 500 nM
Cc1cc([C@@H](C)Oc2ccc(Cl)nc2S(N)(=O)=O)c2oc(-c3cnc4nonc4c3)c(C)c(=O)c2c1 [Example 30C, 6-Chloro-3-[(1R)-1-[3,6-dimethyl-2-([1,2,5]oxadiazolo[3,4-b]pyridin-6-yl)-4-oxo-chromen-8-yl]ethoxy]pyridine-2-sulfonamide] | < 100 nM |  |  | 
CONS(=O)(=O)c1nc(Cl)ccc1O[C@H](C)c1cc(C)cc2c(=O)c(C)c(-c3ccccc3)oc12 [Example 32A, 6-Chloro-3-[(1R)-1-(3,6-dimethyl-4-oxo-2-phenyl-chromen-8-yl)ethoxy]-N-methoxy-pyridine-2-sulfonamide] | < 100 nM |  |  | 
CCS(=O)(=O)c1ccc(-c2oc3c([C@@H](C)Oc4ccc(Cl)nc4S(N)(=O)=O)cc(C)cc3c(=O)c2C)cc1 [Example 33C, 6-Chloro-3-[(1R)-1-[2-(4-ethylsulfonylphenyl)-3,6-dimethyl-4-oxo-chromen-8-yl]ethoxy]pyridine-2-sulfonamide] | < 100 nM |  |  | 
Cc1cc([C@@H](C)Oc2ccc(Cl)nc2S(N)(=O)=O)c2oc(-c3cnn(C)n3)c(C)c(=O)c2c1 [Example 35A, 6-Chloro-3-[(1R)-1-[3,6-dimethyl-2-(2-methyltriazol-4-yl)-4-oxo-chromen-8-yl]ethoxy]pyridine-2-sulfonamide] | < 100 nM |  |  | 
Cc1cc([C@@H](C)Oc2ccc(Cl)nc2C(N)=O)c2oc(-c3ccc4nn(C)cc4c3F)c(C)c(=O)c2c1 [Example 46C, 6-Chloro-3-[(1R)-1-[2-(4-fluoro-2-methyl-indazol-5-yl)-3,6-dimethyl-4-oxo-chromen-8-yl]ethoxy]pyridine-2-carboxamide] |  | < 500 nM | < 50 µL/min/mg | 
Cc1cc([C@@H](C)Oc2ccc(Cl)nc2-c2noc(=O)[nH]2)c2oc(-c3cnc4c(c3)OCCN4C)c(C)c(=O)c2c1 [Example 49A, 3-[6-Chloro-3-[(1R)-1-[3,6-dimethyl-2-(4-methyl-2,3-dihydropyrido[3,2-b][1,4]oxazin-7-yl)-4-oxo-chromen-8-yl]ethoxy]-2-pyridyl]-4H-1,2,4-oxadiazol-5-lone] | < 100 nM |  |  | 

Other lines, results leading:

IC50 (PI3Kα H1047R) | IC50 (PI3Kα E545K [1]) | microsomal CLint at 1 μM [2] | IC50 (PI3Kα E545K [3]) | Compound
 | < 500 nM | < 50 µL/min/mg | < 500 nM | Cc1cc([C@@H](C)Oc2ccc(Cl)nc2C(N)=O)c2oc(-c3ccc4nn(C(F)F)cc4c3)c(C)c(=O)c2c1 [Example 66A, 6-Chloro-3-[(1R)-1-[2-[2-(difluoromethyl)indazol-5-yl]-3,6-dimethyl-4-oxo-chromen-8-yl]ethoxy]pyridine-2-carboxamide]
< 100 nM |  |  |  | Cc1cc([C@@H](C)Oc2ccc(Cl)nc2S(N)(=O)=O)c2oc(-c3ccc4nn(CCO)cc4c3)c(C)c(=O)c2c1 [Example 88C, 6-Chloro-3-[(1R)-1-[2-[2-(2-hydroxyethyl)indazol-5-yl]-3,6-dimethyl-4-oxo-chromen-8-yl]ethoxy]pyridine-2-sulfonamide]
 | < 500 nM | < 50 µL/min/mg |  | Cc1cc([C@@H](C)Oc2ccc(F)nc2S(N)(=O)=O)c2oc(C3CC3)c(C)c(=O)c2c1 [Example 109C, 3-[(1R)-1-(2-Cyclopropyl-3,6-dimethyl-4-oxo-chromen-8-yl)ethoxy]-6-fluoro-pyridine-2-sulfonamide]
 | < 500 nM | < 50 µL/min/mg | < 500 nM | Cc1cc([C@@H](C)Oc2ccc(F)c(F)c2S(N)(=O)=O)c2oc(-c3cnn(C)c3)c(C)c(=O)c2c1 [Example 110C, 6-[(1R)-1-[3,6-Dimethyl-2-(1-methylpyrazol-4-yl)-4-oxo-chromen-8-yl]ethoxy]-2,3-difluoro-benzenesulfonamide]
 | < 500 nM | < 50 µL/min/mg | < 500 nM | Cc1cc([C@@H](C)Oc2ccc(Cl)nc2S(N)(=O)=O)c2oc(-c3cn[nH]c3)c(C)c(=O)c2c1 [Example 115C, 6-Chloro-3-[(1R)-1-[3,6-dimethyl-4-oxo-2-(1H-pyrazol-4-yl)chromen-8-yl]ethoxy]pyridine-2-sulfonamide]
 | < 500 nM | < 50 µL/min/mg | < 500 nM | Cc1cc([C@@H](C)Oc2ccc(Cl)nc2S(N)(=O)=O)c2oc(-c3cnn(CCC(F)F)c3)c(C)c(=O)c2c1 [Example 119C, 6-Chloro-3-[(1R)-1-[2-[1-(3,3-difluoropropyl)pyrazol-4-yl]-3,6-dimethyl-4-oxo-chromen-8-yl]ethoxy]pyridine-2-sulfonamide]
 | < 500 nM | < 50 µL/min/mg |  | Cc1cc([C@@H](C)Oc2ccc(Cl)nc2C(N)=O)c2oc(-c3cc4cn(C)nc4cn3)c(C)c(=O)c2c1 [Example 128A, 6-Chloro-3-[(1R)-1-[3,6-dimethyl-2-(2-methylpyrazolo[3,4-c]pyridin-5-yl)-4-oxo-chromen-8-yl]ethoxy]pyridine-2-carboxamide]
 | < 500 nM | < 50 µL/min/mg |  | Cc1cc([C@@H](C)Oc2ccc(Cl)nc2C(N)=O)c2oc(-c3ccc4nn(C)cc4n3)c(C)c(=O)c2c1 [Example 141A, 6-Chloro-3-[(1R)-1-[3,6-dimethyl-2-(2-methylpyrazolo[4,3-b]pyridin-5-yl)-4-oxo-chromen-8-yl]ethoxy]pyridine-2-carboxamide]
